# Experimental data reported in patent US20020026053A1, “Novel 3-(substituted) -2- indolinones compounds and use thereof as inhibitors of protein kinase activity” (priority 1997, published 2002).
# Legend:
# FLK-1 receptor = experiment: FLK-1 Assay (cellular/catalytic ELISA, VEGF-stimulated phosphotyrosine); assay type: cell-based; set-up: concentration or dose not given beside the values
# Procedure, shortened: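 Receptor phosphotyrosine ELISA: Flk-1-expressing NIH3T3 C7#3 cells, starved overnight in 0.1% FBS medium, received compound (1:200 final dilution, 0.5% DMSO) for 2 h at 37 °C, then VEGF. Anti-FLK-1-captured receptor was probed with anti-phosphotyrosine UB40 and peroxidase/ABTS read-out, relative to cells without compound.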
# PDGF-R = PDGF-R Assay (cellular ELISA, U1242 cells); assay type: cell-based; set-up: concentration or dose not given beside the values
# Procedure, shortened: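 Cellular ELISA for receptor autophosphorylation: after 2 hr test-compound treatment of serum-free U1242 cells at 37°C, ligand is added for 5–10 min, cells are lysed (HNTG) and receptor captured by specific antibody. Anti-phosphotyrosine plus secondary antibody with ABTS colour read at 410/630 nm, compared with compound-free control cells.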
Structure (SMILES),Flk Kinase % Inhibition (P.110) (FLK-1 receptor) [%],PDGF Kinase % Inhibition (P.119) (PDGF-R) [%]
COc1c(Cl)cc(C=C2C(=O)Nc3c(Br)cc(Br)c(C)c32)cc1C(C)(C)C [10732/H09],5.4,−14.4
Cc1c(Br)cc(Br)c2c1C(=Cc1cc(Cl)c(OCc3ccccc3)c(C(C)(C)C)c1)C(=O)N2 [10732/H10],3.3,−21.0
COc1c(I)cc(C=C2C(=O)Nc3c(Br)cc(Br)c(C)c32)cc1C(C)(C)C [10732/H11],6.4,−16.0
Cc1c(Br)cc(Br)c2c1C(=Cc1cc(I)c(OCc3ccccc3)c(C(C)(C)C)c1)C(=O)N2 [10733/H02],−2.0,−5.6
COc1c([N+](=O)[O-])cc(C=C2C(=O)Nc3c(Br)cc(Br)c(C)c32)cc1C(C)(C)C [10733/H03],31.2,16.8
COc1c(C(C)(C)C)cc(C=C2C(=O)Nc3c(Br)cc(Br)c(C)c32)cc1C(C)(C)C [10733/H04],−8.5,−14.5
Cc1c(Br)cc(Br)c2c1C(=Cc1cc(C(C)(C)C)c(OCc3ccccc3)c(C(C)(C)C)c1)C(=O)N2 [10733/H05],17.7,−15.3
COc1c(C)cc(C=C2C(=O)Nc3c(Br)cc(Br)c(C)c32)cc1C [10733/H06],30.0,−12.9
Cc1cc(C=C2C(=O)Nc3c(Br)cc(Br)c(C)c32)cc(C)c1OCc1ccccc1 [10733/H07],7.6,−19.0
COc1cc(Br)cc(C=C2C(=O)Nc3c(Br)cc(Br)c(C)c32)c1O [10733/H08],4.8,−15.3
Cc1c(Br)cc(Br)c2c1C(=Cc1cc(Br)ccc1O)C(=O)N2 [10733/H09],44.8,5.0
Cc1c(Br)cc(Br)c2c1C(=Cc1cc([N+](=O)[O-])ccc1O)C(=O)N2 [10733/H10],12.6,10.7
COc1c(O)ccc(C=C2C(=O)Nc3c(Br)cc(Br)c(C)c32)c1[N+](=O)[O-] [10733/H11],29.1,−4.8
